Source: paper PMC7200204 (Ecotoxicology and environmental safety, 2020)
Converted amounts (≈) assume the structure as drawn.

Tested on: anti-1-NAP monoclonal antibody (mAb)
Experiment: ciELISA with the obtained mAb under optimized conditions
Assay type: binding, mouse
Settings: for CR (cross-reactivity): CR (%) = [IC50 (NAP)/IC50 (cross-reactant)] × 100, n=3; for IC50: Table 2, optimized condition, n=3

SMILES | CR (cross-reactivity) [%] | IC50 [µg/mL]
Oc1cc(O)c2ccccc2c1 [1,3-dihydroxy naphthalene] | 6.9 | 0.178 (≈ 1.11 µM)
CNC(=O)Oc1cccc2ccccc12 [Carbaryl] | 4.2 | 0.3007 (≈ 1.49 µM)
Oc1ccc2cc(O)ccc2c1 [2,6-dihydroxy naphthalene] | 0.4 | 2.8397 (≈ 17.7 µM)
Oc1ccc2cccc(O)c2c1 [1,7-dihydroxy naphthalen] | 1.4 | 0.8817 (≈ 5.5 µM)
Oc1ccc(O)c2ccccc12 [1,4-dihydroxy naphthalene] | 6.2 | 0.2007 (≈ 1.25 µM)
Oc1cccc2c(O)cccc12 [1,5-dihydroxy naphthalene] | 14.3 | 0.0874 (≈ 0.546 µM)
Oc1cccc2ccccc12 [Hapten 1-naphthol, 1-naphthol] | 100 | 0.0125 (≈ 0.0867 µM)
Oc1cccc2cccc(O)c12 [1,8-dihydroxy naphthalene] | 0.3 | 4.3034 (≈ 26.9 µM)
Oc1ccc2c(O)cccc2c1 [1,6-dihydroxy naphthalene] | 2.5 | 0.5028 (≈ 3.14 µM)
Oc1ccc2ccccc2c1 [Hapten 2-naphthol, 2-naphthol] | 1.2 | 1.005 (≈ 6.97 µM)
